# The NIST ThermoML archive (doi:10.1016/j.fluid.2018.01.015)
# ± gives the expanded uncertainty stated by the source.
# What was measured:
# [1] = Crystal; DTA
# [2] = Molar enthalpy of transition or fusion; settings: Crystal; DSC
smiles,measurement,setting,value
"Cc1cc(C)c(C(=O)P(=O)(c2ccccc2)c2ccccc2)c(C)c1 [(2,4,6-trimethylbenzoyl) diphenylphosphine oxide]",Normal melting temperature,[1],92.66 ± 0.39 °C
same,Molar enthalpy of transition or fusion,[2],25.2 ± 0.72 kJ/mol
